Measurements published in patent US11702404B2, “GLP-1R modulating compounds” (priority 2019, dated 2023).

Experiments:
[1] = molecular target: GLP-1R (Homo sapiens, UniProt P43220); test: GLP-1R activation: cAMP increase in CHO cells stably expressing GLP-1R; format: cell-based; settings: cAMP increase, CHO cells stably expressing GLP-1R, 10 point dose response, 30 minutes incubation; read-out: EC50
[2] = Microsomal stability, human liver microsomes (predicted hepatic clearance); settings: predicted from in vitro microsomal stability data

Sequence of GLP-1R (P43220 24-463): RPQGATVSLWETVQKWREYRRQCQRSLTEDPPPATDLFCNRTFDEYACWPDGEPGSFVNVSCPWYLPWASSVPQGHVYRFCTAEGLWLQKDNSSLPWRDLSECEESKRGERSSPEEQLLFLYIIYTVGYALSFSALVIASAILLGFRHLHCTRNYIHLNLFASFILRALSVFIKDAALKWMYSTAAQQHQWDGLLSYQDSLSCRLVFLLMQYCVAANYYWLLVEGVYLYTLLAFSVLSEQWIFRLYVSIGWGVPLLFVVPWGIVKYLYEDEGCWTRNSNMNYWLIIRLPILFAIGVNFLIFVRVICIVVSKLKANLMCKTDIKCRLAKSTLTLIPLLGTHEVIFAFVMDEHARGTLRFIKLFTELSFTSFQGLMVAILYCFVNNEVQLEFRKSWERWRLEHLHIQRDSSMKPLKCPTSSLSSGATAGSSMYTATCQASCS

EC50 [1] [nM] | Predicted Hepatic Clearance (Pred. Cl.) [2] [mL/min/kg] | SMILES
1.66 | 9.67 | CN1C[C@@](C)(Cn2c(Cc3cc(F)c(-c4cccc(OCc5ccc(C#N)cc5F)n4)cc3F)nc3ccc(C(=O)O)cc32)C1=O (racemic) [Example 272, 2-(4-(6-((4-cyano-2-fluorobenzyl)oxy)pyridin-2-yl)-2,5-difluorobenzyl)-1-((1,3-dimethyl-2-oxoazetidin-3-yl)methyl)-1H-benzo[d]imidazole-6-carboxylic acid]
1.86 | 6 | CC(C#N)Cn1c(Cc2cc(F)c(-c3cccc(OCc4ccc(C#N)cc4F)n3)cc2F)nc2ccc(C(=O)O)cc21 (racemic) [Example 306, 2-(4-(6-((4-cyano-2-fluorobenzyl)oxy)pyridin-2-yl)-2,5-difluorobenzyl)-1-(2-cyanopropyl)-1H-benzo[d]imidazole-6-carboxylic acid]
1100 | 5 | COCCn1c([C@@H](C)c2ccc(-c3cccc(OCc4ccc(C#N)cc4F)n3)cc2)nc2ccc(C(=O)O)cc21 (racemic) [Example 447, 2-(1-(4-(6-((4-cyano-2-fluorobenzyl)oxy)pyridin-2-yl)phenyl)ethyl)-1-(2-methoxyethyl)-1H-benzo[d]imidazole-6-carboxylic acid]
325 | 2 | N#Cc1ccc(COc2cccc(-c3ccc(Cc4nc5ccc(C(=O)O)cc5n4C[C@H]4CCS4(=O)=O)cc3)n2)c(F)c1 (racemic) [Example 475, 2-(4-(6-((4-cyano-2-fluorobenzyl)oxy)pyridin-2-yl)benzyl)-1-((1,1-dioxidothietan-2-yl)methyl)-1H-benzo[d]imidazole-6-carboxylic acid]
9.01 | 7.5 | C[C@@]1(Cn2c(Cc3cc(F)c(-c4cccc(OCc5ccc(C#N)cc5F)n4)cc3F)nc3ccc(C(=O)O)cc32)CCCO1 (racemic) [Example 548, 2-(4-(6-((4-cyano-2-fluorobenzyl)oxy)pyridin-2-yl)-2,5-difluorobenzyl)-1-((2-methyltetrahydrofuran-2-yl)methyl)-1H-benzo[d]imidazole-carboxylic acid]
45.5 | 12 | CC1(C)CC[C@@H](Cn2c(Cc3cc(F)c(-c4cccc(OCc5ccc(C#N)cc5F)n4)cc3F)nc3ccc(C(=O)O)cc32)O1 (racemic) [Example 549, 2-(4-(6-((4-cyano-2-fluorobenzyl)oxy)pyridin-2-yl)-2,5-difluorobenzyl)-1-((5,5-dimethyltetrahydrofuran-2-yl)methyl)-1H-benzo[d]imidazole-6-carboxylic acid]
0.89 | 6.5 | N#Cc1ccc(COc2cccc(-c3cc(F)c(Cc4nc5ccc(C(=O)O)cc5n4C[C@@H]4CC(F)(F)CO4)cc3F)n2)c(F)c1 (racemic) [Example 573, 2-(4-(6-((4-cyano-2-fluorobenzyl)oxy)pyridin-2-yl)-2,5-difluorobenzyl)-1-((4,4-difluorotetrahydrofuran-2-yl)methyl)-1H-benzo[d]imidazole-6-carboxylic acid]
3460 | 15.2 | COCCn1c(Cc2ccc(-c3cccc(OCc4ccc(C#N)cc4F)n3)cc2F)nc2ccc(C(O)CO)cc21 (racemic) [Example 582]
1100 | 13.8 | COCCn1c(Cc2ccc(-c3nc(OCc4ccc(C#N)cc4F)ccc3C)cc2)nc2ccc(C(=O)O)cc21 (single isomer, unassigned) [Example 23, 2-(4-(6-((4-cyano-2-fluorobenzyl)oxy)-3-methylpyridin-2-yl)benzyl)-1-(2-methoxyethyl)-1H-benzo[d]imidazole-6-carboxylic acid]
1720 | 2.17 | COCCn1c(Cc2ccc(-c3ccc(C)c(OCc4ccc(C#N)cc4F)n3)cc2)nc2ccc(C(=O)O)cc21 (single isomer, unassigned) [Example 24, 2-(4-(6-((4-cyano-2-fluorobenzyl)oxy)-5-methylpyridin-2-yl)benzyl)-1-(2-methoxyethyl)-1H-benzo[d]imidazole-6-carboxylic acid]
62.4 | 5 | COCCn1c(C2CCc3cc(-c4cccc(OCc5ccc(C#N)cc5F)n4)ccc32)nc2ccc(C(=O)O)cc21 (single isomer, unassigned) [Example 46, 2-(5-(6-((4-cyano-2-fluorobenzyl)oxy)pyridin-2-yl)-2,3-dihydro-1H-inden-1-yl)-1-(2-methoxyethyl)-1H-benzo[d]imidazole-6-carboxylic acid]
1440 | 4.67 | COCCn1c(C2CCc3cc(-c4cccc(OCc5ccc(C#N)cc5F)n4)ccc32)nc2ccc(C(=O)O)cc21 (single isomer, unassigned) [Example 47, 2-(5-(6-((4-cyano-2-fluorobenzyl)oxy)pyridin-2-yl)-2,3-dihydro-1H-inden-1-yl)-1-(2-methoxyethyl)-1H-benzo[d]imidazole-6-carboxylic acid]
575 | 3.67 | COCCn1c(C2OCCc3cc(-c4cccc(OCc5ccc(C#N)cc5F)n4)ccc32)nc2ccc(C(=O)O)cc21 (single isomer, unassigned) [Example 48, 2-(6-(6-((4-cyano-2-fluorobenzyl)oxy)pyridin-2-yl)isochroman-1-yl)-1-(2-methoxyethyl)-1H-benzo[d]imidazole-6-carboxylic acid]
> 1000 | 13 | COCCn1c(C2OCCc3cc(-c4cccc(OCc5ccc(C#N)cc5F)n4)ccc32)nc2ccc(C(=O)O)cc21 (single isomer, unassigned) [Example 49, 2-(6-(6-((4-cyano-2-fluorobenzyl)oxy)pyridin-2-yl)isochroman-1-yl)-1-(2-methoxyethyl)-1H-benzo[d]imidazole-6-carboxylic acid]
12 | <1.83 | N#Cc1ccc(COc2cccc(-c3ccc(Cc4nc5ccc(C(=O)O)cc5n4CC4CCS4(=O)=O)c(F)c3)n2)c(F)c1 (single isomer, unassigned) [Example 69, 2-(4-(6-((4-cyano-2-fluorobenzyl)oxy)pyridin-2-yl)-2-fluorobenzyl)-1-((1,1-dioxidothietan-2-yl)methyl)-1H-benzo[d]imidazole-6-carboxylic acid]
64 | 2.17 | N#Cc1ccc(COc2cccc(-c3ccc(Cc4nc5ccc(C(=O)O)cc5n4CC4CCS4(=O)=O)c(F)c3)n2)c(F)c1 (single isomer, unassigned) [Example 70, 2-(4-(6-((4-cyano-2-fluorobenzyl)oxy)pyridin-2-yl)-2-fluorobenzyl)-1-((1,1-dioxidothietan-2-yl)methyl)-1H-benzo[d]imidazole-6-carboxylic acid]
26.5 | 11 | COCCNC(=O)C(Cn1c(Cc2ccc(-c3cccc(OCc4ccc(C#N)cc4F)n3)cc2F)nc2ccc(C(=O)O)cc21)OC (single isomer, unassigned) [Example 328, 2-(4-(6-((4-cyano-2-fluorobenzyl)oxy)pyridin-2-yl)-2-fluorobenzyl)-1-(2-methoxy-3-((2-methoxyethyl)amino)-3-oxopropyl)-1H-benzo[d]imidazole-6-carboxylic acid]
286 | 7.83 | COC(Cn1c(Cc2ccc(-c3cccc(OCc4ccc(C#N)cc4F)n3)cc2F)nc2ccc(C(=O)O)cc21)C(=O)Nc1nccs1 (single isomer, unassigned) [Example 329, 2-(4-(6-((4-cyano-2-fluorobenzyl)oxy)pyridin-2-yl)-2-fluorobenzyl)-1-(2-methoxy-3-oxo-3-(thiazol-2-ylamino)propyl)-1H-benzo[d]imidazole-6-carboxylic acid]
17.2 | 3.17 | CNC(=O)C(Cn1c(Cc2ccc(-c3cccc(OCc4ccc(C#N)cc4F)n3)cc2F)nc2ccc(C(=O)O)cc21)OC (single isomer, unassigned) [Example 330, 2-(4-(6-((4-cyano-2-fluorobenzyl)oxy)pyridin-2-yl)-2-fluorobenzyl)-1-(2-methoxy-3-(methylamino)-3-oxopropyl)-1H-benzo[d]imidazole-6-carboxylic acid]
– | <1.83 | COCCn1c(Cc2ccc(-c3cccc(OCn4ccc(C(=O)O)cc4=O)n3)cc2F)nc2ccc(C(=O)O)cc21 [Example 503, 2-(4-(6-((4-carboxy-2-oxopyridin-1(2H)-yl)methoxy)pyridin-2-yl)-2-fluorobenzyl)-1-(2-methoxyethyl)-1H-benzo[d]imidazole-6-carboxylic acid]
– | 14.5 | COCCn1c(Cc2ccc(-c3cccc(OCc4ccccc4S(C)(=O)=O)n3)cc2F)nc2ccc(C(=O)O)cc21 [Example 510, 2-(2-fluoro-4-(6-((2-(methylsulfonyl)benzyl)oxy)pyridin-2-yl)benzyl)-1-(2-methoxyethyl)-1H-benzo[d]imidazole-6-carboxylic acid]
– | 6.17 | COCCn1c(Cc2ccc(-c3cccc(OCc4ccc(C(F)(F)F)nc4N)n3)cc2F)nc2ccc(C(=O)O)cc21 [Example 595, 2-(4-(6-((2-amino-6-(trifluoromethyl)pyridin-3-yl)methoxy)pyridin-2-yl)-2-fluorobenzyl)-1-(2-methoxyethyl)-1H-benzo[d]imidazole-6-carboxylic acid]
– | 1.83 | COCCn1c(Cc2cc(F)c(-c3ccc(F)c(OCc4cc(F)c(C#N)cc4F)n3)cc2F)nc2c(F)cc(C(=O)O)cc21 [Example 763]

SMILES | EC50 [1] [nM] | Predicted Hepatic Clearance (Pred. Cl.) [2] [mL/min/kg]
CCOP(=O)(OCC)c1ccc2nc(Cc3ccc(-c4cccc(OCc5ccc(C#N)cc5F)n4)cc3F)n(CCOC)c2c1 [Example 556, Diethyl (2-(4-(6-((4-cyano-2-fluorobenzyl)oxy)pyridin-2-yl)-2-fluorobenzyl)-1-(2-methoxyethyl)-1H-benzo[d]imidazol-6-yl)phosphonate] | – | 19.5
